Results taken from patent publication US8628767B2, “Purine nucleoside phosphorylase as enzymatic activator of nucleoside prodrugs” (priority 2008, dated 2014).
Where two headings read alike, the source gives them in different places.

Tests used:
[1] = tested on: T. vaginalis PNP; conditions: Wang et al.; cited from earlier work
[2] = tested on: T. vaginalis PNP; assay: Substrate cleavage by wild-type Tv-PNP (HPLC); type: biochemical, Trichomonas vaginalis; conditions: for rate of enzymatic cleavage by T. vaginalis PNP: 100 micromolar substrate, HPLC separation of base from nucleoside
Procedure: (§1) The method quantitatively measures the cleavage of substrates in vitro. The purine analog nucleosides (0.1 mM in 500 μl of 100 mM HEPES, pH 7.4, 50 mM potassium phosphate) are combined with 100 μg/ml Tv-PNP or wild-type E. coli PNP. The reaction mixtures are incubated at 25° C. for 1 hour, and the reactions stopped by boiling each sample for 2 minutes. Protein concentration and time of assay are varied depending on activity of enzyme for a particular substrate. Each sample is analyzed by reverse phase HPLC to measure conversion from substrate to product. The nucleoside and purine analogs are eluted from a Spherisorb ODSI (5 μm) column (Keystone Scientific, Inc., State College, Pa.) with a solvent containing 50 mM ammonium dihydrogen phosphate (95%) and acetonitrile (5%). Products are detected by absorbance at 254 nm, and are identified by comparing their retention times and absorption spectra with authentic control samples.
Numerous compounds are tested for efficiency as substrate for Tv-PNP in parallel comparison with E. coli PNP. The compounds include various analogs of adenosine, of inosine, of MeP-dR, and of fluoro- or chloro-substituted adenosine. The enzymes are incubated with 100 micromolar of each compound listed in the table and the rate of enzymatic cleavage is determined by HPLC separation of the base from the nucleoside. […] It is appreciated that the greater biological activity of the Tv-PNP enzyme allows for greater activity in impairing abnormal cell growth when the Tv-PNP is used for treatment of pathological conditions using F-araA as a prodrug substrate.

[3] = molecular target: E. coli PNP (Escherichia coli, UniProt P0ABP8); assay: Substrate cleavage by wild-type E. coli PNP (HPLC); type: biochemical; conditions: 100 micromolar substrate, HPLC separation of base from nucleoside
Procedure: as §1
Numerous compounds are tested for efficiency as substrate for Tv-PNP in parallel comparison with E. coli PNP. […] The enzymes are incubated with 100 micromolar of each compound listed in the table and the rate of enzymatic cleavage is determined by HPLC separation of the base from the nucleoside.

[4] = tested on: tumor expressing wild-type E. coli PNP enzyme; conditions: cited from earlier work
[5] = Tolerated dose of MeP-dR in mice; type: in vivo
From the text: The formula of Freidenreich et al., Cancer Chemother. Rep., 50:219-244, (1966) is optionally used to determine the maximum tolerated dose of substrate for a human subject. […] This amount or slightly less is expected to maximize tumor cell killing in humans without killing the subject thereby generating a favorable efficacy to safety profile. This standard of effectiveness is accepted in the field of cancer therapy. More preferably, a drug levels administered range from about 10% to 1% of the maximum tolerated dosage (for example, 7.5 mg/m^2-0.75 mg/m^2). It is understood that modes of administration that permit the substrate to remain localized at or near the site of the tumor will be effective at lower doses than systemically administered substrates.

[6] = Cleavage of MeP-dR by PNPs of various origins (HPLC); type: biochemical; conditions: 100 μM MeP-dR, enzymes of various purities
[7] = Cleavage of F-araA by PNPs of various origins (HPLC); type: biochemical; conditions: for F-araA rate of cleavage: 100 μM F-araA, enzymes of various purities
[8] = tested on: tumors; assay: In vivo efficacy experiments, tm-PNP versus M65V
[9] = equimolar quantities of substrate

Chain of E. coli PNP (P0ABP8 whole entry): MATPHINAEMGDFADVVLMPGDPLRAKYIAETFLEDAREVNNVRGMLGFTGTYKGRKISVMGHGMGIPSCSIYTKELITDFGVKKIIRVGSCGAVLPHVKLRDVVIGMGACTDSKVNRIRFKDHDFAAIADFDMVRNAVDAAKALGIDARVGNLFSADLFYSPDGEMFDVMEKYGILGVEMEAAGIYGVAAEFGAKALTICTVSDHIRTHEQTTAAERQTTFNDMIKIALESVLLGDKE

## Nc1nc(F)nc2c1ncn2[C@@H]1O[C@H](CO)[C@@H](O)[C@@H]1O [9-(β-D-arabinofuranosyl)-2-fluoroadenine, reference compound]
[1]
  activity of Tv-PNP towards substrate, conventional understanding: does not have appreciable activity
[2]
  rate of enzymatic cleavage by T. vaginalis PNP: 32,000 nanomoles per milligrams per hour
[2]; Tv-PNP rate / E. coli PNP rate
  cleavage rate by Tv-PNP relative to E. coli PNP: approximately 23 times
[2]; Vmax/Km ratio
  catalytic efficiency of Tv-PNP relative to E. coli PNP: 25 fold
[2]; summary of Table 1
  activity of Tv-PNP as compared to wild-type E. coli PNP: more activity
[3]
  rate of enzymatic cleavage by E. coli PNP: 1,250 nanomoles per milligrams per hour
[4]
  tumor response: complete responses

## Cc1ncnc2c1ncn2[C@H]1C[C@H](O)[C@@H](CO)O1 [9-(2-deoxy-β-D-ribofuranosyl]-6-methylpurine]
[2]
  rate of enzymatic cleavage by T. vaginalis PNP: 484,000 nanomoles per milligrams per hour
[5]; mice, systemic, 25 mg per kg per day for 9 days (9 doses total)
  toxicity: some toxicity but no lethality
[5]; mouse, in vivo, 25 mg/kg
  human dosage (maximum tolerated dose) by formula of Freidenreich et al.: 75 mg/m^2
[3]
  rate of enzymatic cleavage by E. coli PNP: 528,000 nanomoles per milligrams per hour

B1: T. vaginalis PNP: wild-type Trichomonas vaginalis purine nucleoside phosphorylase, amino acid sequence SEQ ID NO: 5 (protein, listed as Trichomonas vaginalis)
chain: MATPHNSAQVGDFAETVLMCGDPLRAKLIAETYLENPKLVNNVRGIQGYTGTYKGKPISVMGHGMGLPSICIYAEELYSTYKVKTIIRVGTCGAIDMDIHTRDIVIFTSAGTNSKINRIRFMDHDYPATASFDVVCALVDAAKELNIPAKVGKGFSTDLFYNPQTELAQLMNKFHFLAVEMESAGLFPIADLYGARAGCICTVSDHILHHEETTAEERQNSFQNMMKIALEAAIKL
[6]
  MeP-dR rate of cleavage: 536,000 nmoles/mg/hr
[7]
  F-araA rate of cleavage: 30,000 nmoles/mg/hr
[7]; [9]
  MeP-dR/F-araA cleavage ratio: 18

B2: tm-PNP: tailed mutant E. coli PNP, 30 amino acid tail in place of the terminal glutamic acid (SEQ ID NO: 8) (protein, listed as Trichomonas vaginalis)
chain: MATPHINAEMGDFADVVLMPGDPLRAKYIAETFLEDAREVNNVRGMLGFTGTYKGRKISVMGHGMGIPSCSIYTKELITDFGVKKIIRVGSCGAVLPHVKLRDVVIGMGACTDSKVNRIRFKDHDFAAIADFDMVRNAVDAAKALGIDARVGNLFSADLFYSPDGEMFDVMEKYGILGVEMEAAGIYGVAAEFGAKALTICTVSDHIRTHEQTTAAERQTTFNDMIKIALESVLLGDKGKRPRGSSRVDLQACKLGIFVKEPYFCGVT
[6]
  MeP-dR rate of cleavage: 948 nmol/mg/h
[7]
  MeP-dR/F-araA cleavage ratio: 198
  F-araA rate of cleavage: 4.8 nmol/mg/h
[7]; from MeP-dR/F-araA ratios 198 vs 422
  selectivity of cleavage of F-araA relative to wild-type E. coli PNP: 2.3 fold
[8]
  antitumoral activity relative to M65V: considerably greater antitumoral activity

B3: human PNP: human purine nucleoside phosphorylase (protein, UniProt P00491 1-289, looked up)
Purine nucleoside …: MENGYTYEDYKNTAEWLLSHTKHRPQVAIICGSGLGGLTDKLTQAQIFDYGEIPNFPRSTVPGHAGRLVFGFLNGRACVMMQGRFHMYEGYPLWKVTFPVRVFHLLGVDTLVVTNAAGGLNPKFEVGDIMLIRDHINLPGFSGQNPLRGPNDERFGDRFPAMSDAYDRTMRQRALSTWKQMGEQRELQEGTYVMVAGPSFETVAECRVLQKLGADAVGMSTVPEVIVARHCGLRVFGFSLITNKVIMDYESLEKANHEEVLAAGKQAAQKLEQFVSILMASIPLPDKAS
[6]
  MeP-dR rate of cleavage: 35 nmol/mg/h
[7]
  F-araA rate of cleavage: <1 nmol/mg/h
[7]; [9]
  MeP-dR/F-araA cleavage ratio: >35
